Assay results: patent US7138361B2, “Herbicidal heterocycles” (E. I. du Pont de Nemours and Company, priority 2000, dated 2006)

Legend:
Format in all cases: in vivo
[1] = system: giant foxtail (Setaria faberii); assay: Test B preemergence
Summary of the method: (§1)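 Visual injury scores, 0 = no effect to 100 = complete control, assigned against controls after 13 to 15 days in the greenhouse. Compounds formulated in non-phytotoxic solvent plus surfactant and applied to soil after planting (pre) or onto foliage of 1- to 4-leaf plants (post).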

[2] = system: lambsquarters (Chenopodium album); assay: Test B preemergence
Summary of the method: as §1

[3] = system: crabgrass (Digitaria sanguinalis); assay: Test B preemergence
Summary of the method: as §1

[4] = system: Surinam grass (Brachiaria decumbens); assay: Test B preemergence
Summary of the method: as §1

[5] = system: pigweed (Amaranthus retroflexus); assay: Test B preemergence
Summary of the method: as §1

[6] = system: corn (Zea mays); assay: Test B preemergence
Summary of the method: as §1

[7] = system: velvetleaf (Abutilon theophrasti); assay: Test B preemergence
Summary of the method: as §1

[8] = system: cocklebur (Xanthium strumarium); assay: Test B preemergence
Summary of the method: as §1

[9] = system: morning glory (Ipomoea hederacea); assay: Test B preemergence
Summary of the method: as §1

[10] = system: barnyardgrass (Echinochloa crus-galli); assay: Test B preemergence
Summary of the method: as §1

[11] = system: rice (Oryza saliva); assay: Test B preemergence
Summary of the method: as §1

[12] = system: Sunflower; assay: Test C preemergence; details: Rate 250 g/ha, scale 0 to 100, 0 no effect, 100 complete control
[13] = system: Nightshade; assay: Test C preemergence; details: Rate 500 g/ha, visual evaluation after 12 to 14 days
[14] = system: giant foxtail (Setaria faberii); assay: Test C preemergence; details: for Plant response rating (0 to 100), Foxtail, Giant: Rate 500 g/ha, visual evaluation after 12 to 14 days
Summary of the method: (§2)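 Visual injury scores of 0–100, with 100 meaning complete control, were given relative to controls after 12–14 days in the greenhouse. Treatments used a surfactant-containing non-phytotoxic solvent formulation, sprayed on seeded pots preemergence or on 1–4-leaf plants of 2–18 cm postemergence.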

[15] = system: crabgrass (Digitaria sanguinalis); assay: Test C preemergence; details: for Plant response rating (0 to 100), Crabgrass: Rate 500 g/ha, visual evaluation after 12 to 14 days
Summary of the method: as §2

[16] = system: Surinam grass (Brachiaria decumbens); assay: Test C preemergence; details: for Plant response rating (0 to 100), Surinam grass: Rate 500 g/ha, visual evaluation after 12 to 14 days
Summary of the method: as §2

[17] = system: soybean (Glycine max); assay: Test C preemergence; details: for Plant response rating (0 to 100), Soybean: Rate 500 g/ha, visual evaluation after 12 to 14 days
Summary of the method: as §2

[18] = system: pigweed (Amaranthus retroflexus); assay: Test C preemergence; details: for Plant response rating (0 to 100), Pigweed: Rate 500 g/ha, visual evaluation after 12 to 14 days
Summary of the method: as §2

[19] = system: woolly cupgrass (Eriochloa villosa); assay: Test C preemergence; details: for Plant response rating (0 to 100), Cupgrass, Woolly: Rate 500 g/ha, visual evaluation after 12 to 14 days
Summary of the method: as §2

[20] = system: cocklebur (Xanthium strumarium); assay: Test C preemergence; details: for Plant response rating (0 to 100), Cocklebur: Rate 500 g/ha, visual evaluation after 12 to 14 days
Summary of the method: as §2

[21] = system: bermudagrass (Cynodon dactylon); assay: Test C preemergence; details: for Plant response rating (0 to 100 where 0 is no effect and 100 is complete control), Bermudagrass: Rate 500 g/ha, visual evaluation after 12 to 14 days
Summary of the method: as §2

[22] = system: kochia (Kochia scoparia); assay: Test C preemergence; details: for Plant response rating (0 to 100), Kochia: Rate 500 g/ha, visual evaluation after 12 to 14 days
Summary of the method: as §2

[23] = Preemergence, Rate 500 g/ha, scale 0 to 100, 0 no effect, 100 complete control
[24] = preemergence, Rate 125 g/ha, scale of 0 to 100 where 0 is no effect and 100 is complete control, 13 to 15 days
[25] = Rate 125 g/ha, scale 0 to 100, 0 no effect, 100 complete control
[26] = preemergence, Rate 62 g/ha, scale 0 to 100
[27] = preemergence, Rate 250 g/ha, scale 0 to 100, 0 no effect, 100 complete control

For CCCC(C)c1ccn(C2CCN(c3cccc(OC)c3)C2=O)n1 (centres unmarked) [Compound 99], the “Plant response rating, Foxtail, Giant” value [1, 23] was 100, the “Plant response rating, Foxtail, Giant” value [1, 24] was 0 and the “Plant response rating, Lambsquarters” value [2, 23] was 100. The “Plant response rating, Lambsquarters” value [2, 24] was 100, the “Plant response rating, Crabgrass” value [3, 23] was 100 and the “Plant response rating, Crabgrass” value [3, 24] was 0. The “Plant response rating, Surinam grass” value [4, 23] was 20, the “Plant response rating, Surinam grass” value [4, 24] was 0 and the “Plant response rating, Pigweed” value [5, 23] was 100. The “Plant response rating, Pigweed” value [5, 24] was 0, the “Plant response rating, Corn” value [6, 23] was 30 and the “Plant response rating, Corn” value [6, 24] was 0. For the same compound, the “Plant response rating, Velvetleaf” value [7, 23] was 0, the “Plant response rating, Velvetleaf” value [7, 24] was 0 and the “Plant response rating, Cocklebur” value [8, 23] was 0. The “Plant response rating, Cocklebur” value [8, 24] was 0, the “Plant response rating, Morningglory” value [9, 23] was 0 and the “Plant response rating, Morningglory” value [9, 24] was 0. The “Plant response rating, Barnyardgrass” value [10, 23] was 100, the “Plant response rating, Barnyardgrass” value [10, 24] was 0 and the “Plant response rating, Rice” value [11, 23] was 20. The “Plant response rating, Rice” value [11, 24] was 0, the “Plant response rating, Sunflower” value [12] was 0 and the “Plant response rating (0 to 100), Nightshade” value [13] was 10. For the same compound, the “Plant response rating, Foxtail, Giant” value [14, 25] was 20, the “Plant response rating, Foxtail, Giant” value [14, 26] was 10 and the “Plant response rating (0 to 100), Foxtail, Giant” value ([14]; preemergence) was 70. For the same compound, the “Plant response rating, Foxtail, Giant” value [14, 27] was 20, the “Plant response rating, Crabgrass” value [15, 25] was 100 and the “Plant response rating, Crabgrass” value [15, 26] was 100. For the same compound, the “Plant response rating (0 to 100), Crabgrass” value ([15]; preemergence) was 100, the “Plant response rating, Crabgrass” value [15, 27] was 100 and the “Plant response rating, Surinam grass” value [16, 25] was 0. For the same compound, the “Plant response rating, Surinam grass” value [16, 26] was 0, the “Plant response rating (0 to 100), Surinam grass” value ([16]; preemergence) was 90 and the “Plant response rating, Surinam grass” value [16, 27] was 0. The “Plant response rating, Soybean” value [17, 25] was 0, the “Plant response rating, Soybean” value [17, 26] was 0 and the “Plant response rating (0 to 100), Soybean” value ([17]; preemergence) was 0. The “Plant response rating, Soybean” value [17, 27] was 0, the “Plant response rating, Pigweed” value [18, 25] was 90 and the “Plant response rating, Pigweed” value [18, 26] was 0. The “Plant response rating (0 to 100), Pigweed” value ([18]; preemergence) was 70, the “Plant response rating, Pigweed” value [18, 27] was 20 and the “Plant response rating, Cupgrass, Woolly” value [19, 25] was 0. The “Plant response rating, Cupgrass, Woolly” value [19, 26] was 0, the “Plant response rating (0 to 100), Cupgrass, Woolly” value ([19]; preemergence) was 100 and the “Plant response rating, Cupgrass, Woolly” value [19, 27] was 10. The “Plant response rating, Cocklebur” value [20, 25] was 0, the “Plant response rating, Cocklebur” value [20, 26] was 0 and the “Plant response rating (0 to 100), Cocklebur” value ([20]; preemergence) was 0. For the same compound, the “Plant response rating, Cocklebur” value [20, 27] was 0, the “Plant response rating, Bermudagrass” value [21, 25] was 90 and the “Plant response rating, Bermudagrass” value [21, 26] was 90. For the same compound, the “Plant response rating (0 to 100 where 0 is no effect and 100 is complete control), Bermudagrass” value ([21]; preemergence) was 100, the “Plant response rating, Bermudagrass” value [21, 27] was 100 and the “Plant response rating, Kochia” value [22, 25] was 90. For the same compound, the “Plant response rating, Kochia” value [22, 26] was 80, the “Plant response rating (0 to 100), Kochia” value ([22]; preemergence) was 100 and the “Plant response rating, Kochia” value [22, 27] was 90.

In the case of CCCC(C)c1ccn(C2CCN(c3cccc(C(F)(F)F)c3)C2=O)n1 (centres unmarked) [Compound 100], the “Plant response rating, Foxtail, Giant” value [1, 23] is reported as 70, the “Plant response rating, Foxtail, Giant” value [1, 24] is reported as 0 and the “Plant response rating, Lambsquarters” value [2, 23] is reported as 100. The “Plant response rating, Lambsquarters” value [2, 24] was 100, the “Plant response rating, Crabgrass” value [3, 23] was 100 and the “Plant response rating, Crabgrass” value [3, 24] was 0. For the same compound, the “Plant response rating, Surinam grass” value [4, 23] was 20, the “Plant response rating, Surinam grass” value [4, 24] was 0 and the “Plant response rating, Pigweed” value [5, 23] was 100. For the same compound, the “Plant response rating, Pigweed” value [5, 24] was 70, the “Plant response rating, Corn” value [6, 23] was 20 and the “Plant response rating, Corn” value [6, 24] was 0. The “Plant response rating, Velvetleaf” value [7, 23] was 0, the “Plant response rating, Velvetleaf” value [7, 24] was 0 and the “Plant response rating, Cocklebur” value [8, 23] was 0. The “Plant response rating, Cocklebur” value [8, 24] was 0, the “Plant response rating, Morningglory” value [9, 23] was 0 and the “Plant response rating, Morningglory” value [9, 24] was 0. The “Plant response rating, Barnyardgrass” value [10, 23] was 100, the “Plant response rating, Barnyardgrass” value [10, 24] was 0 and the “Plant response rating, Rice” value [11, 23] was 20. The “Plant response rating, Rice” value [11, 24] was 0, the “Plant response rating, Sunflower” value [12] was 0 and the “Plant response rating (0 to 100), Nightshade” value [13] was 0. The “Plant response rating, Foxtail, Giant” value [14, 25] was 10, the “Plant response rating, Foxtail, Giant” value [14, 26] was 90 and the “Plant response rating (0 to 100), Foxtail, Giant” value ([14]; preemergence) was 100. The “Plant response rating, Foxtail, Giant” value [14, 27] was 40, the “Plant response rating, Crabgrass” value [15, 25] was 100 and the “Plant response rating, Crabgrass” value [15, 26] was 100. The “Plant response rating (0 to 100), Crabgrass” value ([15]; preemergence) was 100, the “Plant response rating, Crabgrass” value [15, 27] was 100 and the “Plant response rating, Surinam grass” value [16, 25] was 0. For the same compound, the “Plant response rating, Surinam grass” value [16, 26] was 0, the “Plant response rating (0 to 100), Surinam grass” value ([16]; preemergence) was 30 and the “Plant response rating, Surinam grass” value [16, 27] was 0. The “Plant response rating, Soybean” value [17, 25] was 0, the “Plant response rating, Soybean” value [17, 26] was 0 and the “Plant response rating (0 to 100), Soybean” value ([17]; preemergence) was 0. The “Plant response rating, Soybean” value [17, 27] was 0, the “Plant response rating, Pigweed” value [18, 25] was 0 and the “Plant response rating, Pigweed” value [18, 26] was 0. For the same compound, the “Plant response rating (0 to 100), Pigweed” value ([18]; preemergence) was 100, the “Plant response rating, Pigweed” value [18, 27] was 20 and the “Plant response rating, Cupgrass, Woolly” value [19, 25] was 20. For the same compound, the “Plant response rating, Cupgrass, Woolly” value [19, 26] was 0, the “Plant response rating (0 to 100), Cupgrass, Woolly” value ([19]; preemergence) was 100 and the “Plant response rating, Cupgrass, Woolly” value [19, 27] was 20. The “Plant response rating, Cocklebur” value [20, 26] was 0, the “Plant response rating (0 to 100), Cocklebur” value ([20]; preemergence) was 0 and the “Plant response rating, Cocklebur” value [20, 27] was 0. The “Plant response rating, Bermudagrass” value [21, 25] was 90, the “Plant response rating, Bermudagrass” value [21, 26] was 90 and the “Plant response rating (0 to 100 where 0 is no effect and 100 is complete control), Bermudagrass” value ([21]; preemergence) was 100. The “Plant response rating, Bermudagrass” value [21, 27] was 100, the “Plant response rating, Kochia” value [22, 25] was 0 and the “Plant response rating, Kochia” value [22, 26] was 0. The “Plant response rating (0 to 100), Kochia” value ([22]; preemergence) was 100 and the “Plant response rating, Kochia” value [22, 27] was 90.
